“Also recorded” adds a separate entry of the source.
How the values were obtained:
ob/ob mice = test: ob/ob mice, four weeks daily ip treatment; type: in vivo
Protocol: The study employed 4-5 week old male ob/ob mice of average weight of about 23 g/mouse. Fatostatin A (30 mg/kg/day) was delivered intraperitoneally daily, and body weight and food intake were measured. […] At the end of first week of treatment ob control mice injected with DMSO gained on average of 4.82 g/mouse (from 23.58±0.62 to 28.40±1.45), whereas the fatostatin treated group gained about 3.37 g/mouse (23.08±1.53 to 26.45±1.2 g/mouse), (p=0.03). After 28 days of treatment the fatostatin A treated group weighed about 12% less than the controls weeks (32.1±1.4 compared to 36.2±2.2 g/mouse […]) (P=0.02). The accumulative food intake was similar in both groups FIG. 8C).
Four- to 5-week old homozygous male obese (ob/ob) mice (C57BL/6J, The Jackson Laboratory, Bar Harbor, Me.) were housed under controlled conditions (12-hr light/dark cycle; 25° C.). The animals were housed 5 per cage and had ad libitum access to standard laboratory chow (Purina Mills, Richmond Ind.) and water for one week after their arrival. On first day of the experiment and every day thereafter the weight of the mice and the amount of the food consumed were measured. The weight of mice and food remaining were measured daily between 3-5 p.m. before the ip injection of fatostatin A (30 mg/kg; 150 μL). The administration of Fatostatin A or 10% DMSO in PBS to control groups (n=5) continued daily for four weeks till the end of the study.
After 28 days of daily injection of fatostatin A mice were fasted overnight and blood was withdrawn and Whole blood glucose and 3-hydroxybutyrate were measured with a Glucometer Precision Xtra (Abbott). For determination of serum constituents. Glucose, triglyceride and cholesterol measurements were done by the Comparative Pathology Laboratory (Baylor College of Medicine). Serum non-esterified fatty acids (NEFA) were measured by using NEFA C kit (Wako Chemicals, Richmond, Va.).
Mice were sacrificed and weights of livers, and Epididymal fat pads were determined. Frozen sections of Liver slices from individual animals were stained with Oil Red O to visualize the fat droplets (TG) in liver slices as described earlier (Abu-Elheiga et al., 2001). The remaining liver tissues were frozen in liquid nitrogen and kept at −80° C. for further analysis.
Liver triglyceride and cholesterol contents were carried out as described in the reference (Chandler, et al., 2003) using Cholesterol E Kit (Wako) and Infinity Triglyceride Kit (Thermo Electron, Melbourne, Australia), adapted for colorimetric analysis in 96-well plate format.
A portion of the frozen liver was ground to powder in liquid nitrogen. The powdered tissues were suspended in 10 ml of PBS containing 0.1 mM PMSF, 5 mM benzamidine, and 5 mg/ml protease inhibitor cocktail (Roche), and homogenized using Polytron (3×30 Sec, at high speed) and sonicated briefly to degrade DNA. The extracts were clarified by centrifugation at 16,000×g for 20 min. Protein concentrations in the supernatant were determined, and subjected to western blot analysis using commercially available antibodies against the following enzymes: FAS (BD Biosciences), citrate lyase SCD1, FADS1, ACC and phospho-ACC antibodies. The proteins were visualized using Amersham ECL Plus™ Western Blotting Detection Reagents. The intensity of the specific bands of proteins of interest were scanned and normalized against beta-actin for quantifications. FAS and ACC activities from the liver extracts were determined as described earlier (Mao et al., 2006).
Total RNA was prepared from mouse tissues using TRIzol reagent (Invitrogen). Equal amounts of RNA from 5 mice were pooled and treated with DNase I (Turbo DNA-free, Ambion, Inc.). First stranded cDNA was synthesized from 2 μg of DNase I-treated total RNA with random hexamer primer using Superscript II RNase H-reverse transcriptase (Invitrogen). […]

HePG2 cells = test: HePG2 cell growth, SREBP-1 western blot; type: cell-based, human
Protocol: Cells were seeded onto 16 well plates at a density of 100000 cells/well in medium containing 2% charcoal stripped serum. After 24 hours, compound 19 was added to the cells at the indicated concentrations for another 48 hours. […] Values are depicted as means±SD; *P<0.05.

[1] = western blot, normalized to actin

## CCCc1cc(-c2nc(-c3ccc(C)cc3)cs2)ccn1 [Compound 1, 2-propyl-4-(4-p-tolylthiazol-2-yl)pyridine]
ob/ob mice; 30 mg/kg ip daily, four weeks
  toxicity during the treatment: no obvious toxicity
ob/ob mice; 30 mg/kg/day ip, control 4.82
  body weight gain at the end of first week: about 3.37 g/mouse
ob/ob mice; 30 mg/kg/day ip, from 23.08±1.53
  body weight at the end of first week: 26.45±1.2 g/mouse
ob/ob mice; 28 days
  decrease in serum HDL: about 22%
  decrease in serum LDL: about 35%
  increase of VLDL: about 50%
  serum non esterified free fatty acids (NEFA) higher than controls: about 70%
  serum triglycerides (TG) increase compared to controls: about 30%
ob/ob mice; 28 days, blood, listed as fatostatin A
  ketone bodies (hydroxy butyrate) increase compared to controls: increased about seven fold; also recorded: seven fold increase
ob/ob mice; 28 days, fasted mice, control 429.4±87
  serum glucose: 153.2 ± 30.5 mg/dL
ob/ob mice; 28 days, fasted mice, listed as fatostatin
  serum glucose lower than controls: ~70%
ob/ob mice; 28 days, fasted mice, listed as fatostatin A
  serum glucose lower than controls: about 70%
ob/ob mice; 28 days, control 0.5±0.37
  ketone bodies (hydroxy butyrate): 3.62 ± 1.41 mg/dL
ob/ob mice; 28 days, control 0.7±0.2
  serum NEFA: 1.93±0.26 mEq/l
ob/ob mice; 28 days, control 48±8
  serum LDL: 31±3
ob/ob mice; 28 days, control 79±12
  serum triglycerides (TG): 115±11
ob/ob mice; 28 days, control 183±12
  serum HDL: 144±11
ob/ob mice; 28 days, control 219±18
  serum total cholesterol: 183 ± 16 mg/dL
ob/ob mice; after 28 days of treatment
  body weight less than controls: about 12%
ob/ob mice; after 28 days of treatment, control 36.2±2.2
  body weight: 32.1±1.4 g/mouse
ob/ob mice; average over 28 days, control 5.9±1.4
  food intake: 5.4±1.5 g/mouse·day
ob/ob mice; calculated based on TG levels, control 15.8±2.4
  VLDL: 23.1 ± 2.3 mg/dL
ob/ob mice; control 5.9+1.4
  average daily food intake: 5.4+1.5 g/mouse/d
ob/ob mice; four weeks
  average weight of epididymal fat pads less than controls: about 20%
  decrease of ACC activity in liver extracts: about 40%
  reduction of FAS activity in liver extracts: more than 70%
  reduction of TG levels in livers: about 65%
  reduction of cholesterol levels in liver: more than 20%
ob/ob mice; four weeks, control 2.34±0.15
  average weight of livers: 1.59±0.2
ob/ob mice; four weeks, control 3.6±0.1
  cholesterol levels in liver: 2.8±0.5
ob/ob mice; four weeks, control 3.6±0.2
  average weight of epididymal fat pads: 2.7±0.1
ob/ob mice; four weeks, control 5.55±0.57
  ACC activity in liver extracts: 3.44±0.44 n mol/min·mg
ob/ob mice; four weeks, control 22.6±1.37
  FAS activity in liver extracts: 8.64±1.91 n mol/min·mg
ob/ob mice; four weeks, control 38.7±6.0
  TG levels in livers: 14.8±3.7 mg/gram liver
ob/ob mice; four weeks, listed as fatostatin
  average weight of livers less than controls: ~32%
ob/ob mice; four weeks, listed as fatostatin A
  average weight of livers less than controls: about 32%
ob/ob mice; real time PCR
  reduction of PPAR γ mRNA level in liver: about 40%
ob/ob mice; real time PCR, normalized to actin
  reduction in the mRNA levels of ACC1, FAS and SCD1 in liver: about 80%
ob/ob mice; western blot
  protein level of FADS 1 or Δ5 Desaturase in liver: did not change
ob/ob mice; [1]
  reduction of ACL protein level in liver extracts: about 70%
  reduction of SCD1 protein level in liver extracts: about 50%

## CCCc1cc(-c2nc(-c3ccc(NS(C)(=O)=O)cc3)cs2)ccn1 [Compound 19, N-(4-(2-(2-propylpyridin-4-yl)thiazol-4-yl)phenyl)methanesulfonamide]
HePG2 cells; 25 μM, HePG2 cells
  level of mature and precursor forms of SREBP-1 (western blot): significant decrease in the level of the mature and active form
HePG2 cells; 25, 50 and 100 μM, 48 hours
  toxicity, morphology and growth of treated cells: high level of toxicity

Source: patent publication US9713613B2, “Methods and compositions for the treatment of cancer and related hyperproliferative disorders” (priority 2007, dated 2017)
